Measured values from PubChem BioAssay AID463204 (Broad Institute, 2010).
The source made the active and inactive calls.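 How the source made its calls: active means AC50 no more than ten times the top concentration tested, that is within one log above it; inconclusive means flat curve fit with activity between 30% and 70%, or invalid poor fit; inactive means AC50 beyond ten times the top tested dose.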

What follows are molecules tested on S. cerevisiae Mot1-301 ts growth rescue, BacTiter-Glo ATP luminescence (assay: restored Mot1-301 yeast growth at 38.5C – whole organism, S. cerevisiae, Mot1-301 ts mutant, luminescence, dose retest, SUMOylation pathway inhibitor project, confirmation (AID 463204);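 further: growth at restrictive 38.5 degrees C of Mot1-301 OY566 strain; actives raise luminescence by restoring growth of the ts mutant at high temperature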).
In the case of `CC(CN1CCCCCC1)C(=O)NN` (stereo unspecified), the AC50 was > 42 µM (inactive).
`O=C1CCC(=O)N1CCOP1(=O)COc2ccccc2OC1` was tested, and the AC50 was > 42 µM (inactive).
With `CCN(CC)c1ccc(Nc2cc3n(c(=O)n2)CCc2cc(OC)c(OC)cc2-3)cc1` the AC50 was > 42 µM (inactive).
In the case of `CCOP(=O)(OCC)C(NC(=O)c1cccc([N+](=O)[O-])c1)C(Cl)(Cl)Cl` (stereo unspecified), the AC50 was > 42 µM (inactive).
In the case of `CCCNc1nc2ccccc2c(=O)[nH]1`, the AC50 was > 42 µM (inactive).
For `CC(=O)NC1CCCN(O)C(=O)/C=C(\C)CCOC(=O)C(NC(C)=O)CCCN(O)C(=O)/C=C(\C)CCOC(=O)C(NC(C)=O)CCCN(O)C(=O)/C=C(\C)CCOC1=O` (stereo unspecified), the AC50 was > 42 µM (inactive).
In the case of `CCCCN(C)C(=O)c1cc2c(Cl)nc3ccccc3c2s1`, the AC50 was > 42 µM (inactive).
In the case of `Cc1ccc(NC(=O)/C=N/OCC(=O)NCc2ccccc2Cl)cc1`, the AC50 was > 42 µM (inactive).
For `CC(C)c1ccc(C2C(C(=O)c3ccco3)=C(O)C(=O)N2CCN2CCOCC2)cc1` (stereo unspecified), the AC50 was > 42 µM (inactive).
In the case of `O=C(NCCNc1ccc(Cl)cc1[N+](=O)[O-])c1ccccc1F`, the AC50 was > 42 µM (inactive).
For `OC(COc1ccccc1)Cn1c2ccccc2c2ccccc21` (stereo unspecified), the AC50 was 35.6 µM.
With `CC(C(=O)NCCN1CCOCC1)(c1ccccc1)c1ccccc1` the AC50 was > 42 µM (inactive).
With `O=C(COc1ccccc1)Nc1ccc(OC(F)(F)C(F)F)c(NC(=O)COc2ccccc2)c1` the AC50 was > 42 µM (inactive).
For `Cc1cc(C)n2nc(SCC(=O)NC3CCCC(C)C3C)nc2n1` (stereo unspecified), the AC50 was > 42 µM (inactive).
With `O=C(Cc1cccs1)Nc1nnc(-c2ccncc2)s1` the AC50 was > 42 µM (inactive).
For `COCCn1c(SCC(=O)Nc2nc3ccccc3s2)nnc1-c1ccoc1C`, the AC50 was > 42 µM (inactive).
Molecule `c1ccc2cc(C3CCCCC3)ncc2c1` has an AC50 of 14 µM.
For `CS(=O)(=O)Nc1ccccc1C(=O)NCCSCc1ccccc1`, the AC50 was > 42 µM (inactive).
With `CC(C)c1cc(N2CCOCC2)n2ncc(-c3ccccc3)c2n1` the AC50 was > 42 µM (inactive).
`CCC(C)[C@H](NC(=O)Nc1ccc(S(N)(=O)=O)cc1)C(=O)OC` (stereo partly specified) was tested, and the AC50 was > 42 µM (inactive).
With `CC1C(=O)CC(c2ccccc2)N(C)C1c1ccccc1` (stereo unspecified) the AC50 was 33.7 µM.
In the case of `CC1=C(C(N)=O)C(c2ccccn2)n2nc(SCc3ccccc3Cl)nc2N1` (stereo unspecified), the AC50 was > 42 µM (inactive).
In the case of `O=C(COC(=O)CNC(=O)c1ccc(Cl)cc1)Nc1ncc(C(F)(F)F)cc1Cl`, the AC50 was > 42 µM (inactive).
In the case of `CCN(CC)C(=O)CSc1nnc(SCc2ccc(Cl)cc2)s1`, the AC50 was > 42 µM (inactive).
In the case of `Cc1cc(S(=O)(=O)N2CCCC(N3CCOCC3)C2)c(C)cc1Cl` (stereo unspecified), the AC50 was > 42 µM (inactive).
For `CN(C)/C=N/NC(=O)c1ccccc1`, the AC50 was > 42 µM (inactive).
Work on `Cc1c(C2(O)CCCCC2)[nH]c2ccc(C#N)cc12` yielded an AC50 of 41.9 µM.
In the case of `Cc1cnc(C(=O)OC(C(=O)c2c[nH]c3ccccc23)c2ccccc2)cn1` (stereo unspecified), the AC50 was 29.4 µM.
In the case of `COC(=O)c1sc2ccccc2c1NC(=O)c1ccc(S(=O)(=O)N2CCCC(C)C2)cc1` (stereo unspecified), the AC50 was > 42 µM (inactive).
With `Cc1cc(C)c2nc(-c3cccnc3)cc(C(=O)Nc3ccc(S(=O)(=O)Nc4onc(C)c4C)cc3)c2c1` the AC50 was > 42 µM (inactive).
For `Cc1nc2sc(C(c3ccccc3)N3CCC(O)CC3)c(O)n2n1` (stereo unspecified), the AC50 was > 42 µM (inactive).
In the case of `Cc1ccc(N(CC(=O)Nc2cccc(C)c2)S(=O)(=O)c2cccc3nonc23)cc1`, the AC50 was > 21 µM (inactive).
With `COc1cc(CN2CCC(Oc3cc(C(=O)NC4CC4)ccc3OC)CC2)cc(OC)c1` the AC50 was 34.8 µM.
Work on `O=c1/c(=C/c2ccco2)sc2nc(-c3ccccc3Br)nn12` yielded an AC50 of 5.74 µM.
With `COc1ccc(N2CCN(C(=O)CNC(=O)Cc3ccc(Cl)cc3)CC2)cc1` the AC50 was > 42 µM (inactive).
In the case of `Cn1c(=O)c2c(ncn2CC(=O)OCC(=O)Nc2ccc(Cl)cc2)n(C)c1=O`, the AC50 was > 42 µM (inactive).
In the case of `Cc1cc(NC(=O)c2ccc(N3C(=O)CCC3=O)cc2)no1`, the AC50 was > 42 µM (inactive).
For `COc1cc(NC(=O)C2=CC(c3ccco3)=NS(=O)(=O)N2C)cc(OC)c1OC`, the AC50 was > 42 µM (inactive).
In the case of `COc1ccccc1/C=C/C(=O)c1c2c(c(C)[nH]c1=O)CCCC2`, the AC50 was > 42 µM (inactive).
`COCC(=O)n1nc(-c2ccc(Cl)cc2)nc1NCc1ccc(F)cc1` was tested, and the AC50 was > 42 µM (inactive).
`O=C(/C=C/c1ccc(Cl)cc1Cl)Nc1cccc(S(=O)(=O)NC2=NCCCCC2)c1` was tested, and the AC50 was > 42 µM (inactive).
With `CC1CCN(CCCCOc2cccc(C(C)C)c2)CC1` the AC50 was > 42 µM (inactive).
`CSc1cccc(NC(=S)N2CCCN(Cc3ccccc3F)C2)c1` was tested, and the AC50 was > 42 µM (inactive).
`CCOC(=O)C1C(=O)NC(SCC(=O)Nc2nccs2)=C(C#N)C1c1ccccc1OCC` (stereo unspecified) was tested, and the AC50 was > 42 µM (inactive).
With `CCCCn1c(N)c(N(CC(C)C)C(=O)c2cc(-c3ccc(F)cc3)nc3ccccc23)c(=O)[nH]c1=O` the AC50 was > 42 µM (inactive).
`CCOC(=O)Cn1c(=O)oc2cc(S(=O)(=O)NC(C)(C)CC)ccc21` was tested, and the AC50 was > 42 µM (inactive).
For `COc1cc2c(cc1OC)C(c1ccccc1C)CC(=O)N2` (stereo unspecified), the AC50 was > 42 µM (inactive).
In the case of `Cc1ccc(C)c(C(C)NC(=O)c2ccncc2)c1` (stereo unspecified), the AC50 was > 42 µM (inactive).
For `c1ccc(CCCc2nc(-c3cccnc3)no2)cc1`, the AC50 was > 42 µM (inactive).
With `O=C(/C=C/c1ccc(F)cc1)NCC1(c2ccccc2)CCOCC1` the AC50 was > 42 µM (inactive).
With `CC(C)C1OC2(C)OC(=N)C1(C#N)C(C#N)(C#N)C2c1ccccc1` (stereo unspecified) the AC50 was > 42 µM (inactive).
In the case of `CCN1C(=O)N(c2ccc(Cl)cc2)C(C)=CC1(C)C`, the AC50 was > 42 µM (inactive).
`CCCCc1nnc(NC(=O)CSc2nc(O)c(-c3ccccc3)c(=O)[nH]2)s1` was tested, and the AC50 was > 42 µM (inactive).
For `COC(=O)c1cccc(NC(=O)c2cccnc2)c1`, the AC50 was > 42 µM (inactive).
In the case of `CCCN1C(=O)c2[nH]nc(-c3cc(Cl)c(C)cc3O)c2C1c1ccc(O)c(OC)c1` (stereo unspecified), the AC50 was > 42 µM (inactive).
In the case of `COC(=O)Nc1ccc(S(=O)(=O)N2CCCC(C(=O)NC3CCS(=O)(=O)C3)C2)cc1` (stereo unspecified), the AC50 was > 42 µM (inactive).
In the case of `CCOc1ccc(C(=O)Nc2ccc(C(F)(F)F)n(C)c2=O)cc1`, the AC50 was > 42 µM (inactive).
In the case of `COC(=O)c1sccc1NC(=S)N1CCCCC1`, the AC50 was > 42 µM (inactive).
`CCOC(=O)Cc1csc(NC(=O)NC2(C(F)(F)F)Oc3ccccc3O2)n1` was tested, and the AC50 was > 42 µM (inactive).
With `CCCOc1ccc(N2C(=O)CC(N3CCC(C(=O)OCC)CC3)C2=O)cc1` (stereo unspecified) the AC50 was 13.1 µM.
`O=C(Oc1ccc2c(c1)OCO2)c1cccs1` was tested, and the AC50 was > 42 µM (inactive).
With `C#CCn1c(=NC(=O)CN2C(=O)CCC2=O)sc2cccc(OC)c21` the AC50 was > 42 µM (inactive).
With `CCCOC(=O)C1=C(C)NC2=C(C(=O)CCC2)C1c1cccs1` (stereo unspecified) the AC50 was > 42 µM (inactive).
For `CC(C)C(=O)NCCSc1c[nH]c2ccccc12`, the AC50 was > 42 µM (inactive).
For `CCOC(=O)CN1NC2(CCC(C(C)(C)C)CC2)NC1=S` (stereo unspecified), the AC50 was > 42 µM (inactive).
`O=C(Nc1ccc2nc(-c3ccc4nc[nH]c4c3)[nH]c2c1)c1cccs1` was tested, and the AC50 was > 42 µM (inactive).
In the case of `C/C(CC1(O)C(=O)Nc2ccccc21)=N\O` (stereo unspecified), the AC50 was > 42 µM (inactive).
With `Cc1cccc(Cn2c(C(=O)OC(C)C)cc3c2ccn3C)c1` the AC50 was > 42 µM (inactive).
In the case of `CCC1(CC)NC(=O)N(CC(=O)OCC(=O)NC(=O)c2ccccc2)C1=O`, the AC50 was > 42 µM (inactive).
In the case of `CCOC(=O)c1ccccc1NC(=O)CSc1ccc(-c2ccccn2)nn1`, the AC50 was > 42 µM (inactive).
`CCOc1ccc(/C=N/NS(=O)(=O)c2ccc(C)cc2)cc1OC` was tested, and the AC50 was > 42 µM (inactive).
In the case of `COc1cccc(OC)c1OCC(O)CN1CCN(c2ccccc2)CC1` (stereo unspecified), the AC50 was > 42 µM (inactive).
In the case of `COC(=O)[C@@H]1[C@@H](C(=O)OC)C2(c3ccccc3-c3ccccc32)N(c2ccc(Cl)cc2)N1C#N`, the AC50 was 1.72 µM.
With `CN(C)C(CNC(=O)CNC(=O)c1ccc(Br)cc1)c1ccccc1` (stereo unspecified) the AC50 was > 42 µM (inactive).
With `O=C(Nc1ccc(Cl)cc1)C1=Cc2ccccc2OC1` the AC50 was 40.9 µM.
In the case of `N/C(=N\N=C\c1ccc(O)cc1)c1nonc1N`, the AC50 was > 42 µM (inactive).
`O=S(=O)(Cc1ccccc1)N1CCN(c2ccccc2)CC1` was tested, and the AC50 was > 42 µM (inactive).
In the case of `N=c1ncn(CC(O)CO)c2nc(N3CCOCC3)[nH]c12` (stereo unspecified), the AC50 was > 42 µM (inactive).
For `CN(C)CC/C=C1/c2cc(F)ccc2Sc2ccc(Cl)cc21`, the AC50 was > 42 µM (inactive).
For `COCC(=O)n1nc(NCc2ccc(OC)cc2)nc1NCc1ccc(OC)cc1`, the AC50 was > 42 µM (inactive).
With `O=C(NC1CCCCC1)c1ccc2snnc2c1` the AC50 was > 42 µM (inactive).
With `CN(C(=O)C1CCCO1)c1nnc(-c2cnccn2)s1` (stereo unspecified) the AC50 was > 42 µM (inactive).
In the case of `CN(C(=O)COC(=O)c1cc(-c2ccc(Cl)s2)nc2ccccc12)C1CCS(=O)(=O)C1` (stereo unspecified), the AC50 was > 42 µM (inactive).
With `COc1ccc(NC(=O)CSc2nccc(C)n2)cc1` the AC50 was > 42 µM (inactive).
In the case of `CCOC(=O)N1CCN(c2nnnn2-c2ccccc2)CC1`, the AC50 was > 42 µM (inactive).
In the case of `CS(=O)(=O)c1ccc(Cl)c(C(=O)O)c1`, the AC50 was > 42 µM (inactive).
`O=C(NCC1CCCO1)C1CC(c2ccc(Cl)c(Cl)c2)=NO1` (stereo unspecified) was tested, and the AC50 was > 42 µM (inactive).
`CCOc1ncccc1C(=O)OCC(=O)N(CC)c1ccccc1` was tested, and the AC50 was > 42 µM (inactive).
For `CC(=O)N/C(=C\c1ccccc1)C(=O)OCC(=O)c1ccccc1`, the AC50 was > 42 µM (inactive).
With `Cc1nc2ccc(NC(=O)c3ccco3)cc2s1` the AC50 was > 42 µM (inactive).
With `COc1ccccc1NC(=O)COC(=O)CC(C)(C)CC1=NS(=O)(=O)c2ccccc2N1` the AC50 was > 42 µM (inactive).
`CC1CN=C(NCc2ccccc2)S1` (stereo unspecified) was tested, and the AC50 was > 42 µM (inactive).
With `Cc1nc(-c2ccc(Cl)cc2)sc1C1(C)CC(c2c(Cl)cccc2Cl)=NO1` (stereo unspecified) the AC50 was > 42 µM (inactive).
`CCOC(=O)c1sc(NC(=O)CSc2n[nH]c(-c3ccccc3)n2)c(C#N)c1C` gave an AC50 of 20.6 µM.
With `CC1CN(C(=O)c2cc([N+](=O)[O-])cc([N+](=O)[O-])c2)CC(C)O1` (stereo unspecified) the AC50 was > 42 µM (inactive).
In the case of `CCOc1ccc(N2CC(C(=O)OC)CC2=O)cc1` (stereo unspecified), the AC50 was > 42 µM (inactive).
`COc1ccccc1CNC(=O)C1CCC(CNS(=O)(=O)c2ccc(C)cc2)CC1` (stereo unspecified) was tested, and the AC50 was > 42 µM (inactive).
`COc1ccc(OC)c2c(N)c(C#N)c(C(F)(F)C(F)(F)F)nc12` was tested, and the AC50 was > 42 µM (inactive).
`Nn1c(SCc2cc([N+](=O)[O-])cc3c2OCOC3)nnc1-c1ccccn1` was tested, and the AC50 was > 42 µM (inactive).
With `COc1ccc(C2SCC(=O)Nc3c2c(=O)[nH]n3C2CCCCC2)cc1` (stereo unspecified) the AC50 was > 42 µM (inactive).
For `CSc1ccc(CN2CCN(S(=O)(=O)Cc3ccccc3)CC2)cc1`, the AC50 was > 42 µM (inactive).
